A short description of this data set: presence of drug in the epidermis after the composition is applied to the skin. Type of data set: in vivo. To be noted: after the composition containing the drug has been applied to the skin. From the text:
In the present invention, the Hsieh enhancer is used in a different way, that is, as a penetration-facilitator for delivery of drug to the dermal layer of the skin without significant, if any, systemic absorption of the drug into the blood stream of the user.

Turning to `CO[C@H]1C[C@@H]2CC[C@@H](C)[C@@](O)(O2)C(=O)C(=O)N2CCCC[C@H]2C(=O)O[C@H]([C@H](C)C[C@@H]2CC[C@@H](O)[C@H](OC)C2)CC(=O)[C@H](C)/C=C(\C)[C@@H](O)[C@@H](OC)C(=O)[C@H](C)C[C@H](C)/C=C/C=C/C=C/1C` [rapamycin], the “drug observed to be present in the epidermis, time after application” value amounted to 72 h.

The values are drawn from patent publication US20110200625A1, “PHARMACEUTICAL COMPOSITION” (priority 2010, published 2011).
